Laboratory results as given in ChEMBL document CHEMBL5029164, “JNJ-67569762, A 2-Aminotetrahydropyridine-Based Selective BACE1 Inhibitor Targeting the S3 Pocket: From Discovery to Clinical Candidate” (J Med Chem, 2021).
≈ marks a conversion by molar mass, not a printed value. Calls of active or inactive are those of the source. The calls are words filed in the database; no cut-off is given here.

Tests used:
[1] = biological target: T1, Beta-secretase 2 (Homo sapiens, UniProt Q9Y5Z0); assay: Inhibition of BACE2 (unknown origin) using APP harboring Swedish Lys-Met/Asn-Leu mutant-derived peptide as substrate incubated for 2 hrs by FRET assay
T1 sequence (Q9Y5Z0 whole entry): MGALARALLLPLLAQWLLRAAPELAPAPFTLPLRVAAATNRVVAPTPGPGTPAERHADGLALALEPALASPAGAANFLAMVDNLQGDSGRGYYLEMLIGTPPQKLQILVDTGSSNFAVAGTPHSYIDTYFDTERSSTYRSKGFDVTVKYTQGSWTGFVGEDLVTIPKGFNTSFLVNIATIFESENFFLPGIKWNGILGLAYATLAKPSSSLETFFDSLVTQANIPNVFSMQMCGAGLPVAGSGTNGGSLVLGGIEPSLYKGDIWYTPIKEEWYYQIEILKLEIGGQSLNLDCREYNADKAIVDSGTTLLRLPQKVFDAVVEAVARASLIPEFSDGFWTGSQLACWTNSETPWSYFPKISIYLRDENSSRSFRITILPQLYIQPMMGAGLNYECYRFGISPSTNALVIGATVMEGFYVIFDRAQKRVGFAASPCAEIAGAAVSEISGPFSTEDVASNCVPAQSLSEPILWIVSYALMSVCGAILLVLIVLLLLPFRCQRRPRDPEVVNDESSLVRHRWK

[2] = organism: Canis lupus familiaris; assay: Reduction in amyloid beta37 levels in Beagle dog CSF; format: functional
[3] = Toxicity in rat assessed as prolonged QT at 15 mg/kg, po for 14 days; format: organism-based; details: in vivo, 336 h, time 14 day
[4] = Chromatographic hydrophobicity index, log D of the compound at pH 7.4; format: physicochemical; details: buffer
[5] = Apparent permeability in MDCK-MDR1 cells; format: ADME, cell-based, Canis lupus familiaris; details: dog
[6] = Cardiotoxicity in human iPSC-derived cardiomyocytes assessed as calcium transport at 2.5 uM measured after 15 to 30 mins by fluorescence assay; format: ADME, cell-based; details: stem cell-derived cardiomyocyte, time 15-30 min
[7] = Cardiotoxicity in human iPSC-derived cardiomyocytes assessed as calcium transport at 0.2 uM measured after 15 to 30 mins; format: ADME, cell-based; details: stem cell-derived cardiomyocyte, time 15-30 min
[8] = tested on: Salmonella typhimurium; assay: Genotoxicity in Salmonella typhimurium measured upto 500 ug/ml in presence and absence of S9 mix fraction by Ames test; format: toxicity, organism-based; details: salmonella enterica subsp. enterica serovar typhimurium; dose <=500 µg/ml
[9] = Reduction in amyloid beta42 levels in Beagle dog CSF; format: functional, Canis lupus familiaris
[10] = biological target: T2, Voltage-gated inwardly rectifying potassium channel KCNH2 (Homo sapiens, UniProt Q12809); assay: Inhibition of human ERG expressed in CHO cells by patch-clamp assay; format: cell-based
T2 sequence (Q12809 whole entry): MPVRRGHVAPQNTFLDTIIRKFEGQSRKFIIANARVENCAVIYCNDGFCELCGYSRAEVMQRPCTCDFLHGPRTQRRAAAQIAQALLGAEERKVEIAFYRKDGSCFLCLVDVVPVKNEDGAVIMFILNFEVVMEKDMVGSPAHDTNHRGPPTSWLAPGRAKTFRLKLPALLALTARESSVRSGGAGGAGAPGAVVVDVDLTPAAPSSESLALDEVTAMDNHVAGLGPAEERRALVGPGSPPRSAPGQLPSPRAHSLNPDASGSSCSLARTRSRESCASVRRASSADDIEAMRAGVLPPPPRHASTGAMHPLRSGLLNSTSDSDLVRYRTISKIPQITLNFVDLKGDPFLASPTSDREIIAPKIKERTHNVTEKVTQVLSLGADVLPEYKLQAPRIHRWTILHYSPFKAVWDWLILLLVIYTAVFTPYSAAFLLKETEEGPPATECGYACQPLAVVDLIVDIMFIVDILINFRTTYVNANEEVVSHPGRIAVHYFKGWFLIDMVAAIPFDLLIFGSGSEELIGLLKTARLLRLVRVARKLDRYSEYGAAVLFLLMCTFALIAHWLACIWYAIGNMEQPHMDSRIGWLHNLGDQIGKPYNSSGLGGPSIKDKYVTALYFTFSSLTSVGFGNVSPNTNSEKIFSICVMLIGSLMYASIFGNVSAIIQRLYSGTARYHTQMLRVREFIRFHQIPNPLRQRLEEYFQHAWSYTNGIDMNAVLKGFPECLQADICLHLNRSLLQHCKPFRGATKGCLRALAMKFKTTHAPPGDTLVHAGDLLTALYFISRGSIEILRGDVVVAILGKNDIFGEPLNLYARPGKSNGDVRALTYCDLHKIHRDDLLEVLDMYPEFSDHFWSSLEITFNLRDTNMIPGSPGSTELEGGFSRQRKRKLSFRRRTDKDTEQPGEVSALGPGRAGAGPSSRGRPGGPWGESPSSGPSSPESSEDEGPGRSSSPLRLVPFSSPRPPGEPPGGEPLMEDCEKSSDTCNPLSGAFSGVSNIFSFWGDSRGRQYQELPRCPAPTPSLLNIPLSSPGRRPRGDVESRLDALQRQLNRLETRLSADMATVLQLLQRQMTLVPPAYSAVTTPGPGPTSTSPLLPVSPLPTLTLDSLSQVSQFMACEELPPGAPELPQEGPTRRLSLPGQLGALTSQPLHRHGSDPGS

[11] = biological target: Cytochrome P450 2C19 (Homo sapiens, UniProt P33261); assay: Reversible inhibition of human CYP2C19; format: ADME
Cytochrome P450 2C19, sequence (P33261 whole entry): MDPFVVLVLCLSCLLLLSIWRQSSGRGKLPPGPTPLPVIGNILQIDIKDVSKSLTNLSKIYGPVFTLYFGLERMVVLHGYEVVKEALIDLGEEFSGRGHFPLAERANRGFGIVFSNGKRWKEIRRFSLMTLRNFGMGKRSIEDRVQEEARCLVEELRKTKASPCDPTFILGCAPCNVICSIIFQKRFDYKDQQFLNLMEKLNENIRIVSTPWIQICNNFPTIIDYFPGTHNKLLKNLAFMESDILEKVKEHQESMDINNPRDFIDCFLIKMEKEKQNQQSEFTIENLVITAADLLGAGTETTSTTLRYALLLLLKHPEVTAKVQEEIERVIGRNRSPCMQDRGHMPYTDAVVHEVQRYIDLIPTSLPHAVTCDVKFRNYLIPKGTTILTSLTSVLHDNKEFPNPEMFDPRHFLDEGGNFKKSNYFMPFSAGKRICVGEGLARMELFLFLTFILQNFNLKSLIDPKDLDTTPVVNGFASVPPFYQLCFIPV

[12] = Plasma protein binding in mouse assessed as unbound fraction at 5 uM after 4.5 hrs by HPLC-MS/MS analysis; format: ADME, cell-free
[13] = Inhibition of calcium channel (unknown origin); set-up: species or system Homo sapiens
[14] = Inhibition of sodium channel (unknown origin); set-up: species or system Homo sapiens
[15] = tested on: Mus musculus; assay: In vivo inhibition of BACE1 in C57BL/6J mouse assessed as reduction in plasma SEZ6L level at 21 to 69 mg/kg,/day administered via diet for 21 days; format: functional, organism-based; details: dose lower […], dose upper 69.0 mg/kg, time 21.0 day
[16] = biological target: Cytochrome P450 2D6 (Homo sapiens, UniProt P10635); assay: Reversible inhibition of human CYP2D6; format: ADME
Cytochrome P450 2D6, sequence (P10635 whole entry): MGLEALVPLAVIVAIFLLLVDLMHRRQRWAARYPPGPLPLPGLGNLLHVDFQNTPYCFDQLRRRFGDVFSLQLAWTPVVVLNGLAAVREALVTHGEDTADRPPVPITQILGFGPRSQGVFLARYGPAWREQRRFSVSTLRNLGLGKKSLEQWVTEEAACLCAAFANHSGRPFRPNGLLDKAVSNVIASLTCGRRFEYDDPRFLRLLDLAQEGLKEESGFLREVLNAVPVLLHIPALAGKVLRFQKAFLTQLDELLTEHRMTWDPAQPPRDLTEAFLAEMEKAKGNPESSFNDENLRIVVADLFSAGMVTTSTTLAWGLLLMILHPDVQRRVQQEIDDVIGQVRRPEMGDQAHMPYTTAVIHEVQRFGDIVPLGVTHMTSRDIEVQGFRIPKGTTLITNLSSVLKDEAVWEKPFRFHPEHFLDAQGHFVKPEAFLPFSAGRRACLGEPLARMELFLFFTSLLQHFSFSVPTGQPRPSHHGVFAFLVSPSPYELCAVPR

[17] = biological target: T2, Voltage-gated inwardly rectifying potassium channel KCNH2; assay: Inhibition of human ERG
[18] = Cardiotoxicity in human iPSC-derived cardiomyocytes assessed as calcium transport at 0.5 uM measured after 15 to 30 mins by fluorescence assay; format: ADME, cell-based; details: stem cell-derived cardiomyocyte, time 15-30 min
[19] = biological target: T1, Beta-secretase 2; assay: Displacement of [3H]-JNJ962 from BACE2 (unknown origin) expressed in HEK293 cell membrane assessed as inhibition constant by scintillation counting analysis; format: cell membranes
[20] = Plasma protein binding in human assessed as unbound fraction at 5 uM after 4.5 hrs by HPLC-MS/MS analysis; format: ADME, cell-free
[21] = Reduction in amyloid beta40 levels in Beagle dog CSF; format: functional, Canis lupus familiaris
[22] = Unbound fraction in human hepatocytes incubated for 3 hrs; format: ADME, cell-based, Hepatocyte
[23] = Chromatographic hydrophobicity index, log D of the compound at pH 10.5; format: physicochemical; details: buffer
[24] = Metabolic stability in dog liver microsomes assessed as intrinsic clearance; format: ADME, Canis lupus familiaris, Microsome; details: read-out: CLH
[25] = Cyanide reactivity in human liver microsomes; format: ADME
[26] = Cardiotoxicity in human iPSC-derived cardiomyocytes assessed as calcium transport at 1 uM measured after 15 to 30 mins by fluorescence assay; format: cell-based; details: stem cell-derived cardiomyocyte, time 15-30 min
[27] = Fraction unbound in rat brain homogenate at 5 uM incubated for 5 hrs by HPLC-MS/MS analysis; format: ADME, tissue-based
[28] = Chromatographic hydrophobicity index, log D of the compound at pH 2.6; format: physicochemical; details: buffer
[29] = biological target: T3, Muscarinic acetylcholine receptor M1 (Homo sapiens, UniProt P11229); assay: Displacement of [3H]-pirenzepine from human recombinant muscarinic 1 receptor after 60 mins by scintillation counting analysis
T3 sequence (P11229 whole entry): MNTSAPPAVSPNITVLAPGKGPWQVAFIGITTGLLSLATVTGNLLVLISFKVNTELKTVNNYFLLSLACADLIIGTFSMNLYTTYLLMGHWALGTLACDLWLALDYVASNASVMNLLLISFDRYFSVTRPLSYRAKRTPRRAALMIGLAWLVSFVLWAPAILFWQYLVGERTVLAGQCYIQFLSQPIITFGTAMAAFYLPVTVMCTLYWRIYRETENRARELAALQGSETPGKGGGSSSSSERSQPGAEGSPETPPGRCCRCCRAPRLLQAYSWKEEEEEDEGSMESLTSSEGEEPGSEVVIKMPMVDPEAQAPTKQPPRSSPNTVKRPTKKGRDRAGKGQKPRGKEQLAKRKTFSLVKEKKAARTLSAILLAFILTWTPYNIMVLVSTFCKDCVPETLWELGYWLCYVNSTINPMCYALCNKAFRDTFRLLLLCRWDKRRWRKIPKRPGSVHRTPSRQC

[30] = Dissociation constant, pKa of compound by potentiometric method; format: physicochemical

Structure (SMILES): CCS(=O)(=O)[C@]1(C)CC[C@@](CF)(c2cc(NC(=O)c3cc4c(cn3)OC(F)(F)O4)ccc2F)N=C1N
- IC50 [1]: 195 nM
- Activity [2]: Dose-Dependent Effect
- Activity [3]: Toxic
- chromatographic logD [4]: 3.08
- Papp [5]: 32.4 ×10⁻⁶ cm/s
- Activity [6]: Toxic
- Activity [7]: Non-Toxic
- Activity [8]: Non-Toxic
- EC80 [9]: 0.0425 µg/mL (≈ 0.0801 µM)
- IC50 [10]: 8300 nM
- IC50 [11]: 19500 nM
- fraction unbound at 4.5 h, 5 µM [12]: 0.035
- IC50 [13]: 1200 nM
- IC50 [14]: 1700 nM
- inhibition [15]: Active
- IC50 [16]: 800 nM
- IC50 [17]: > 10000 nM
- Activity [18]: Non-Toxic
- Ki [19]: 50 nM
- fraction unbound at 4.5 h, 5 µM [20]: 0.063
- EC80 [21]: 0.0425 µg/mL (≈ 0.0801 µM)
- fraction unbound at 3 h [22]: 0.679
- chromatographic logD [23]: 3.14
- microsomal CLint [24]: < 7.7 µL/min/mg
- Activity [25]: Not Active
- Activity [26]: Non-Toxic
- fraction unbound at 5 h, 5 µM [27]: 0.014
- chromatographic logD [28]: 0.89
- Ki [29]: 7200 nM
- pKa [30]: 7.08
